Reference: ChEMBL document CHEMBL4834490, “Novel Bromodomain Inhibitors for Treating Cancer, Fibrosis, and Inflammatory Disorders” (ACS Med Chem Lett, 2021)

Columns and labels:
[1] = target: T1, Bromodomain-containing protein 4 (Homo sapiens, UniProt O60885); test: Inhibition of binding of N-terminal His-tagged human full length recombinant BRD4 (2 to 1362 residues) expressed in baculovirus-infected Sf9 cells with acetylated histone H4 peptide (1 to 21) preincubated for 30 mins followed by H4 ligand addition and measured after 30 mins AlphaScreen assay
[2] = target: T1, Bromodomain-containing protein 4; test: Binding affinity to DNA-tagged human BRD4 (BD1,2) isoform long expressed in Escherichia coli BL21 incubated for 1 hr by competitive ligand binding BROMOscan assay

Row | SMILES | IC50 [1] | Kd [2]
1 | Cc1cc(-c2ccc3nc(-c4cnn(CC(C)(C)O)c4)nc(N4CCOC[C@@H]4c4ccccc4)c3c2)cn(C)c1=O | < 100 nM | < 100 nM
2 | Cc1cc(-c2ccc3nc(-c4cnn(CC(C)(C)O)c4)nc(N4CCOC[C@@H]4C4CC4)c3c2)cn(C)c1=O | 100 nM | < 100 nM
3 | Cc1cc(-c2ccc3nc(-c4cnn(CC(C)(C)O)c4)nc(N4CCOC[C@@H]4c4ccc(F)cc4)c3c2)cn(C)c1=O | < 100 nM | < 100 nM
4 | Cn1cc(-c2ccc3nc(-c4cnn(CC(C)(C)O)c4)nc(N4CCOC[C@@H]4c4ccc(F)cc4)c3c2)c2cc[nH]c2c1=O | < 100 nM | < 100 nM
5 | Cn1cc(-c2ccc3nc(-c4cnn(CC(C)(C)O)c4)nc(N4CCOC[C@@H]4c4ccccc4)c3c2)c2cc[nH]c2c1=O | < 100 nM | < 100 nM
6 | Cn1cc(-c2ccc3nc(-c4cnn(CC(C)(C)O)c4)nc(N4CCOC[C@@H]4C4CC4)c3c2)c2cc[nH]c2c1=O | < 100 nM | < 100 nM
